Data set [1] has as its system Hs578T. In words: Wound healing migration assay. In kind it is cell-based. The settings on record: Homo sapiens, Hs-578T; HS578T cell line; Table Ib. The gist of the method:
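Cells seeded at 150000/24 well, grown to monolayer overnight, scratched with a pipette tip, then treated with compound at 12.5, 6.25 or 3.125 μM versus DMSO. Stopped by crystal violet fixation at 48-72 h once control wounds closed; IC50 taken as 50% wound size between t0 and t48 or t72.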

Data set [2] has as its target T1, wild type AXL (wtAXL) receptor tyrosine kinase (Homo sapiens, UniProt P30530).
T1 construct: WtAXL cDNA was cloned into vector pLXSN(ESK) and transfected into Phoenix E packaging cells; expressed in transfected cells; host or cells: NIH3T3 N7 (mouse fibroblasts), retrovirally infected, clone 22
T1 sequence (P30530 26-894): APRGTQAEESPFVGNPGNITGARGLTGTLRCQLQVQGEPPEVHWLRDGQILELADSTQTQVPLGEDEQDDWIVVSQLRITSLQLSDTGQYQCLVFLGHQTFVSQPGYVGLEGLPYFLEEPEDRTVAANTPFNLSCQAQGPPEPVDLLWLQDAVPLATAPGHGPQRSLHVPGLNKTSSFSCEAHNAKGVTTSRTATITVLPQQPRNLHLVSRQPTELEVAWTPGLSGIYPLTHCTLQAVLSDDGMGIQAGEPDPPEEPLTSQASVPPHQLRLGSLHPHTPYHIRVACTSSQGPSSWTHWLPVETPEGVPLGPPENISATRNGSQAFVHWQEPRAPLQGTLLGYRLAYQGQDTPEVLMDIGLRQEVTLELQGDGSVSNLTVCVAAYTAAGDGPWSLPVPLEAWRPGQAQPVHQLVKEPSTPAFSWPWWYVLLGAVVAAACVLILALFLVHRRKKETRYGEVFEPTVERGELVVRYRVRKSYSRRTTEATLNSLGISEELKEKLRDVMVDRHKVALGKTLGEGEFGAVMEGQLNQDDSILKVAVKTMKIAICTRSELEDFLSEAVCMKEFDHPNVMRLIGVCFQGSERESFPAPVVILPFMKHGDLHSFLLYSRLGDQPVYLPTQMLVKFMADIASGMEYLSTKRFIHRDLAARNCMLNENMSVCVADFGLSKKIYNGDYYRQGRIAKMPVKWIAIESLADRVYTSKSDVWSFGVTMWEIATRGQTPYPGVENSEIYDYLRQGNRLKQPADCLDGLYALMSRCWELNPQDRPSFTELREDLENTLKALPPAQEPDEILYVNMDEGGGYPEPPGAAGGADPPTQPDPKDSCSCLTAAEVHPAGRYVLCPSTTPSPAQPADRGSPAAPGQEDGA
In words: NIH-3T3-AXL cellular kinase assay (pY-AXL-ELISA). In kind it is cell-based. The settings on record: NIH-3T3-AXL (clone 22) cells, serum depleted, compounds 1 h; Table Ia. As to the method: WtAXL cDNA was cloned into vector pLXSN(ESK) and transfected into Phoenix E packaging cells. The viral supernatant was collected and used to infect target cells NIH3T3 N7. Monoclonal NIH3T3-AXL cell lines stably expressing wtAXL were generated by selecting retrovirally infected cells in medium containing puromycin (2 μg/ml) and subsequent clonal separation.
Serial dilutions of compounds were added, and the cells were further incubated for 1 h. Cells were washed with PBS and lysed on ice in 500 μl lysis buffer (50 mM HEPES (pH 7.5), 150 mM NaCl, 1 mM EGTA, 10% Glycerol, 1% Triton X-100, 100 mM NaF, 10 mM Na4P2O7.10H2O, 1 mM Na3VO4, 1 mM phenylmethylsulfonyl fluoride, and […]) for 15 min. The cell lysate were used for phosphotyrosine AXL enzyme-linked immunosorbant assay (pY-AXL-ELISA). […] Subsequently 96-well plates were blocked with PBS-0.05% Tween®20+10% FBS for 4 h at 37° C. Plates were washed 5 times with PBS-0.05% Tween®20 and 95 μl of lysate was transferred per well for incubation overnight at 4° C. Plates were washed 5 times with PBS-0.05% Tween®20 (Sigma, Steinheim, Germany). For detection of phosphorylated tyrosine we used homemade biotynilated 4G10-antibody (0.5 μg/ml) in PBS-0.05% Tween®20+10% FBS (100 μl/well) and incubated the 96-well plate for 2 h at room temperature. The anti-phosphotyrosine mouse monoclonal antibody 4G10 was biotynilated with Sulfo-NHS®-Biotin according to the suppliers protocol (Pierce, Rockford, Ill., USA) and purified by Mirco Bio-Spin 6 Chromatograpy Columns (BIO RAD Laboratories, Inc., Hercules, Calif., USA) using PBS as diluent. Plates were washed 5 times with PBS-0.05% Tween®20. For biding to biotin Alkaline Phosphatase Conjugated Strepavidin SA110 (Millipore, Billerica, Mass., USA) (1:4000) was used in PBS-0.05% Tween20+10% FBS (100 μl/well) and incubated for 30 min at room temperature. Plates were washed 5 times with PBS-0.05% Tween20. For fluorimetric detection of alkaline phosphatase AttoPhos Substrate Set (Roche diagnostics GmbH, Mannheim, Germany) was used (100 μl/well). The fluorimetric signal was quantified after 90 min at 430/560 nm wavelength using a TECAN Ultra Evolution plate reader (Tecan Deutschland GmbH, Crailsheim, Germany).

For data set [3], the system named is Hs578T. In words: Cell vitality assay (ATP assay, CellTiter-Glo). In kind it is cell-based. The settings on record: Homo sapiens, Hs-578T; HS578T cell line, 72 h; Table Ib; read-out: IC50 ATP-Assay HS578T after 72 h. The gist of the method:
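Cells (1000/well) incubated 72 h with test compound, top dose 12.5 μM, twofold dilutions, DMSO as reference. Lysis reagent added, luminescence recorded; background from cell-free medium wells.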

Data set [4] concerns Hs578T. In words: Matrigel outgrowth assay/branching assay. The conditions noted are these: Homo sapiens, Hs-578T; HS578T cell line; Table Ib; read-out: Total branching inhibition in Matrigel HS578T. In kind it is cell-based. The gist of the method: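 Read-out: microscopic images of invasive branching structures at 48 h, 72 h and 96 h. Cells sat on a 3 mg/ml Matrigel layer (set 1 h, 37° C) with compound at 3.125, 1.56 and 0.78 μM or DMSO. A concentration counts as positive only with complete branching inhibition.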

Bounds are passed on as bounds.

Compound `COc1cc2c(Oc3ccc(NS(=O)(=O)c4csc5ccccc45)cc3F)ccnc2cc1OCCCN1CCC(C)CC1` [Example 115, Benzo[b]thiophene-3-sulfonic acid (3-fluoro-4-{6-methoxy-7-[3-(4-methyl-piperidin-1-yl)-propoxy]-quinolin-4-loxy}-phenyl)-amide] showed a melting point of 132 to 135 °C. For the same compound, the IC50 with Hs578T [1] is no more than 12.5 µM. In data set [2], this compound yielded an IC50 of less than 0.5 µM. Also, the IC50 in the data set on Hs578T [3] was no more than 12.5 µM. In the data set on Hs578T [4], the IC50 was no more than 10 µM.
Take `COc1cc2c(Oc3ccc(NS(=O)(=O)c4csc5ccccc45)cc3F)ccnc2cc1OCCCN1CCN(C)CC1` [Example 116, Benzo[b]thiophene-3-sulfonic acid (3-fluoro-4-{6-methoxy-7-[3-(4-methyl-piperazin-1-yl)-propoxy]-quinolin-4-yloxy}-phenyl)-amide]: the melting point is 112 to 114 °C. The IC50 with Hs578T [1] is no more than 12.5 µM. This compound yielded an IC50 in data set [2] of less than 0.5 µM. In addition, the IC50 with Hs578T [3] was no more than 12.5 µM. The IC50 in the data set on Hs578T [4] was 10 to 25 µM.
Compound `COc1cc2c(Oc3ccc(NS(=O)(=O)c4csc5ccccc45)cc3Cl)ccnc2cc1OCCCN1CCN(C)CC1` [Example 117, Benzo[b]thiophene-3-sulfonic acid (3-chloro-4-{6-methoxy-7-[3-(4-methyl-piperazin-1-yl)-propoxy]-quinolin-4-yloxy}-phenyl)-amide] came in with a melting point of 98 to 101 °C. This compound came in with an IC50 with Hs578T [1] of no more than 12.5 µM. The IC50 in data set [2] is less than 0.5 µM. For the same compound, the IC50 in the data set with Hs578T [3] is no more than 12.5 µM. Besides, the IC50 in the data set on Hs578T [4] fell in the range of 10 to 25 µM.
Consider `COc1cc2c(Oc3ccc(NS(=O)(=O)c4cc(Cl)ccc4Cl)cc3Cl)ccnc2cc1OCCCN1CCN(C)CC1` [Example 124, 2,5-Dichloro-N-(3-chloro-4-{6-methoxy-7-[3-(4-methyl-piperazin-1-yl)-propoxy]-quinolin-4-yloxy}-phenyl)-benzenesulfonamide], for which the melting point was 144 to 145 °C. In addition, the IC50 in the data set with Hs578T [1] was no more than 12.5 µM. The same compound registered an IC50 in data set [2] of less than 0.5 µM. In addition, in the data set on Hs578T [3], the IC50 is no more than 12.5 µM. Further, the IC50 in the data set with Hs578T [4] is no more than 10 µM.
For `COc1cc2c(Oc3cccc(NS(=O)(=O)c4cc(Cl)ccc4Cl)c3)ccnc2cc1OCCCN1CCN(C)CC1` [Example 127, 2,5-Dichloro-N-(3-{6-methoxy-7-[3-(4-methyl-piperazin-1-yl)-propoxy]-quinolin-4-yloxy}-phenyl)-benzenesulfonamide], the melting point was in the range of 111 to 113 °C. The compound further had an IC50 in the data set on Hs578T [1] of no more than 12.5 µM. Further, the IC50 in data set [2] is 0.5 to 3 µM. The IC50 with Hs578T [3] was no more than 12.5 µM. Also, the IC50 with Hs578T [4] is no more than 10 µM.
With `COc1cc2c(Oc3cccc(NS(=O)(=O)c4c(Cl)cccc4Cl)c3)ccnc2cc1OCCCN1CCN(C)CC1` [Example 128, 2,6-Dichloro-N-(3-{6-methoxy-7-[3-(4-methyl-piperazin-1-yl)-propoxy]-quinolin-4-yloxy}-phenyl)-benzenesulfonamide], the melting point was 111 to 112 °C. The compound also showed an IC50 with Hs578T [1] of no more than 12.5 µM. This compound had an IC50 in data set [2] of 0.5 to 3 µM. The IC50 with Hs578T [3] is no more than 12.5 µM. In addition, the IC50 with Hs578T [4] was no more than 10 µM.
With `COc1cc2c(Oc3cccc(NS(=O)(=O)c4cc(Cl)sc4Cl)c3)ccnc2cc1OCCCN1CCN(C)CC1` [Example 134, 2,5-Dichloro-thiophene-3-sulfonic acid (3-{6-methoxy-7-[3-(4-methyl-piperazin-1-yl)-propoxy]-quinolin-4-yloxy}-phenyl)-amide], the melting point was 177 to 178 °C. This compound came in with an IC50 in the data set with Hs578T [1] of no more than 12.5 µM. This compound also came in with an IC50 in data set [2] of 0.5 to 3 µM. Moreover, the IC50 with Hs578T [3] was no more than 12.5 µM. The IC50 in the data set on Hs578T [4] was no more than 10 µM.
Compound `COc1cc2c(Oc3cccc(NS(=O)(=O)c4csc5ccccc45)c3)ccnc2cc1OCCCN1CCN(C)CC1` [Example 136, Benzo[b]thiophene-3-sulfonic acid (3-{6-methoxy-7-[3-(4-methyl-piperazin-1-yl)-propoxy]-quinolin-4-yloxy}-phenyl)-amide] gave a melting point of 91 to 93 °C. Also, the IC50 in the data set on Hs578T [1] was no more than 12.5 µM. For the same compound, the IC50 in data set [2] lay in the range of 0.5 to 3 µM. In addition, the IC50 in the data set on Hs578T [3] is no more than 12.5 µM. In addition, in the data set on Hs578T [4], the IC50 was no more than 10 µM.
In turn, `COc1cc2c(Oc3ccc(NS(=O)(=O)c4cccs4)cc3F)ccnc2cc1OCCCN1CCCCC1C` (stereo not shown) [Example 144, Thiophene-2-sulfonic acid (3-fluoro-4-{6-methoxy-7-[3-(2-methyl-piperidin-1-yl)-propoxy]-quinolin-4-yloxy}-phenyl)-amide] had a melting point of 117 to 119 °C. The IC50 with Hs578T [1] was no more than 12.5 µM. The compound also returned an IC50 in data set [2] of less than 0.5 µM. Moreover, the IC50 in the data set on Hs578T [3] was no more than 12.5 µM. Besides, the IC50 in the data set with Hs578T [4] is 10 to 25 µM.
On to `COc1cc2c(Oc3ccc(NS(=O)(=O)c4ccc(Cl)s4)cc3F)ccnc2cc1OCCCN1CCCCC1C` (stereo not shown) [Example 145, 5-Chloro-thiophene-2-sulfonic acid (3-fluoro-4-{6-methoxy-7-[3-(2-methyl-piperidin-1-yl)-propoxy]-quinolin-4-yloxy}-phenyl)-amide], for which the melting point was 118 to 120 °C. The compound also showed an IC50 in the data set on Hs578T [1] of no more than 12.5 µM. The compound further returned an IC50 in data set [2] of less than 0.5 µM. For the same compound, in the data set with Hs578T [3], the IC50 is no more than 12.5 µM. Moreover, the IC50 with Hs578T [4] lay within 10 to 25 µM.
Take `COc1cc2c(Oc3ccc(NS(=O)(=O)c4c(Cl)csc4Cl)cc3F)ccnc2cc1OCCCN1CCCCC1C` (stereo not shown) [Example 146, 2,4-Dichloro-thiophene-3-sulfonic acid (3-fluoro-4-{6-methoxy-7-[3-(2-methyl-piperidin-1-yl)-propoxy]-quinolin-4-yloxy}-phenyl)-amide]: the melting point is 131 to 132 °C. Also, the IC50 in the data set on Hs578T [1] is no more than 12.5 µM. The compound further gave an IC50 in data set [2] of less than 0.5 µM. For the same compound, the IC50 in the data set on Hs578T [3] is no more than 12.5 µM. For the same compound, the IC50 in the data set with Hs578T [4] is 10 to 25 µM.

Values taken from US9169241B2, “Quinolinyloxyphenylsulfonamides” (Max-Planck-Gesellschaft Zur Forderung der Wissenschaften …, priority 2009, dated 2015).
